In US11377469B2, “CD73 inhibitors” (ORIC Pharmaceuticals, Inc., priority 2017, dated 2022):

The compounds below were run against CD73 (Homo sapiens (Human), UniProt P21589) (assay: Biochemical Assay (CD73 inhibition, AMP hydrolysis, Malachite Green readout)). Conditions: CD73 0.3208 nM, AMP 15 μM, Tris-HCl pH 7.4, Malachite Green absorbance.
Protocol: Example A1: Biochemical Assay
Assay Reaction Conditions
• Assay Volume: 70 μl • Reaction Volume: 50 μl • CD73: 0.3208 nM • AMP: 15 μM • Assay Buffer: 2 5 mM Tris-HCL, pH 7.4, 0.01% Brij-35, 0.01% BSA, 5 mM MgCl2 Assay Procedure:
Made dose titration of testing compounds in assay buffer, 10 points ½ log titrations in duplicates starting at 100 μM.
Added 25 μl of CD73 to each well for a final concentration of 320 pM.
Incubated at RT for 15 min.
Added 25 μl of AMP to each well for a final concentration of 15 μM.
Incubated at RT for 10 min.
Added 10 μl of Malachite Green Reagent A, incubate at RT for 10 min.
Added 10 μl of Malachite Green Reagent B, incubate at RT for 45 min. […]
The ability of the compounds disclosed herein to inhibit CD73 activity was quantified and the respective IC50 values were determined. Table 1 provides the biochemical IC50 values of compounds disclosed herein.

Chain of CD73 (P21589 27-574): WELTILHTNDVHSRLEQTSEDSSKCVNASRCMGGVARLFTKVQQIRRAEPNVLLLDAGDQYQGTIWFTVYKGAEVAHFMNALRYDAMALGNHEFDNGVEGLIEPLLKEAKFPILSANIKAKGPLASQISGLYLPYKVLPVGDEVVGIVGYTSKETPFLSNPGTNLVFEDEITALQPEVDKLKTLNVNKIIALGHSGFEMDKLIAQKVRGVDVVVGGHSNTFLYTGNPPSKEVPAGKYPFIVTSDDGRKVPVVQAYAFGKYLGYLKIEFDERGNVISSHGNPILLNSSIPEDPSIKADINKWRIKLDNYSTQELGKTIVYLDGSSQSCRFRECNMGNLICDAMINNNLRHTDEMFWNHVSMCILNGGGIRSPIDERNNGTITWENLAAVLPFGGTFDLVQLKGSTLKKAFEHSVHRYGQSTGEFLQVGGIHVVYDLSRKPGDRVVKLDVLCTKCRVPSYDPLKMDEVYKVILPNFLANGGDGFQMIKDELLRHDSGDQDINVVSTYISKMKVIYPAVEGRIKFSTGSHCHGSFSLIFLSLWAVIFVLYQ

Compound | IC50
CN(c1nc(Cl)nc2c1nnn2[C@@H]1O[C@H](COCP(=O)(O)O)[C@@H](O)[C@H]1O)[C@H]1CCc2ccccc21 [Example 26, ((((2R,3S,4R,5R)-5-(5-chloro-7-(((S)-2,3-dihydro-1H-inden-1-yl)(methyl)amino)-3H-[1,2,3]triazolo[4,5-d]pyrimidin-3-yl)-3,4-dihydroxytetrahydrofuran-2-yl)methoxy)methyl)phosphonic acid] | 500 to 1000 nM
((((2R,3S,4R,5R)-5-(5-chloro-7-((3- chlorobenzyl)pamino)-3H[1,2,3]triazolo[4,5- d]pyrimidin-3-yl)-3,4- dihydroxytetrahydrofuran-2- yl)methoxy)methyl)phosphonic acid [Example 24] | ≤ 500 nM
CN(Cc1ccccc1)c1nc(Cl)nc2c1cnn2[C@@H]1O[C@H](COCCP(=O)(O)O)[C@@H](O)[C@H]1O [Example 5, (2-(((2R,3S,4R,5R)-5-(4-(Benzyl(methyl)amino)-6-chloro-1H-pyrazolo[3,4-d]pyrimidin-1-yl)-3,4-dihydroxytetrahydrofuran-2-yl)methoxy)ethyl)phosphonic acid] | > 1000 nM
CC(C)(O)c1nc(NC2CCCC2)c2cnn([C@@H]3O[C@H](COCP(=O)(O)O)[C@@H](O)[C@H]3O)c2n1 [Example 132, ((((2R,3S,4R,5R)-5-(4-(cyclopentylamino)-6-(2-hydroxypropan-2-yl)-1H-pyrazolo[3,4-d]pyrimidin-1-yl)-3,4-dihydroxytetrahydrofuran-2-yl)methoxy)methyl)phosphonic acid] | > 1000 nM
CNc1nc(NCc2cccc(Cl)c2)c2cnn([C@@H]3O[C@H](COCP(=O)(O)O)[C@@H](O)[C@H]3O)c2n1 [Example 56, ((((2R,3S,4R,5R)-5-(4-((3-chlorobenzyl)amino)-6-(methylamino)-1H-pyrazolo[3,4-d]pyrimidin-1-yl)-3,4-dihydroxytetrahydrofuran-2-yl)methoxy)methyl)phosphonic acid] | > 1000 nM
CC1(C)CCC[C@@H]1Nc1nc(Cl)nc2c1cnn2[C@@H]1O[C@H](COCP(=O)(O)O)[C@@H](O)[C@H]1O [Example 102, ((((2R,3S,4R,5R)-5-(6-chloro-4-(((S)-2,2-dimethylcyclopentyl)amino)-1H-pyrazolo[3,4-d]pyrimidin-1-yl)-3,4-dihydroxytetrahydrofuran-2-yl)methoxy)methyl)phosphonic acid] | ≤ 500 nM
O=P(O)(O)COC[C@H]1O[C@@H](n2ncc3c(Nc4ccccc4)nc(Cl)nc32)[C@H](O)[C@@H]1O [Example 75, ((((2R,3S,4R,5R)-5-(6-chloro-4-(phenylamino)-1H-pyrazolo[3,4-d]pyrimidin-1-yl)-3,4-dihydroxytetrahydrofuran-2-yl)methoxy)methyl)phosphonic acid] | ≤ 500 nM
O=P(O)(O)COC[C@H]1O[C@@H](n2ncc3c(NCCC4CC4)nc(Cl)nc32)[C@H](O)[C@@H]1O [Example 94, ((((2R,3S,4R,5R)-5-(6-chloro-4-((2-cyclopropylethyl)amino)-1H-pyrazolo[3,4-d]pyrimidin-1-yl)-3,4-dihydroxytetrahydrofuran-2-yl)methoxy)methyl)phosphonic acid] | ≤ 500 nM
O=P(O)(O)COC[C@H]1O[C@@H](n2ncc3c(NCc4cccc(Cl)c4F)nc(Cl)nc32)[C@H](O)[C@@H]1O [Example 58, ((((2R,3S,4R,5R)-5-(6-chloro-4-((3-chloro-2-fluorobenzyl)amino)-1H-pyrazolo[3,4-d]pyrimidin-1-yl)-3,4-dihydroxytetrahydrofuran-2-yl)methoxy)methyl)phosphonic acid] | ≤ 500 nM
O=P(O)(O)COC[C@H]1O[C@@H](n2ncc3c(NCc4cccc5ccccc45)nc(Cl)nc32)[C@H](O)[C@@H]1O [Example 49, ((((2R,3S,4R,5R)-5-(6-chloro-4-((naphthalen-1-ylmethyl)amino)-1H-pyrazolo[3,4-d]pyrimidin-1-yl)-3,4-dihydroxytetrahydrofuran-2-yl)methoxy)methyl)phosphonic acid] | ≤ 500 nM

The next lines start with the values.

IC50 | Compound
≤ 500 nM | C[C@H](Nc1nc(Cl)nc2c1cnn2[C@@H]1O[C@H](COCP(=O)(O)O)[C@@H](O)[C@H]1O)c1cccc(Cl)c1 [Example 34, ((((2R,3S,4R,5R)-5-(6-chloro-4-(((S)-1-(3-chlorophenyl)ethyl)amino)-1H-pyrazolo[3,4-d]pyrimidin-1-yl)-3,4-dihydroxytetrahydrofuran-2-yl)methoxy)methyl)phosphonic acid]
≤ 500 nM | CN(C[C@H]1O[C@@H](n2ncc3c(NC4CCCC4)nc(Cl)nc32)[C@H](O)[C@@H]1O)C(=O)CP(=O)(O)O [Example 109, (2-((((2R,3S,4R,5R)-5-(6-chloro-4-(cyclopentylamino)-1H-pyrazolo[3,4-d]pyrimidin-1-yl)-3,4-dihydroxytetrahydrofuran-2-yl)methyl)(methyl)amino)-2-oxoethyl)phosphonic acid]
≤ 500 nM | COCCN(c1nc(Cl)nc2c1cnn2[C@@H]1O[C@H](CS(=O)(=O)CP(=O)(O)O)[C@@H](O)[C@H]1O)C1CCCC1 [Example 133]
≤ 500 nM | O=P(O)(O)CS(=O)(=O)C[C@H]1O[C@@H](n2ncc3c(NCc4ccc(Cl)cc4)nc(Cl)nc32)[C@H](O)[C@@H]1O [Example 127, (((((2S,3S,4R,5R)-5-(6-chloro-4-((4-chlorobenzyl)amino)-1H-pyrazolo[3,4-d]pyrimidin-1-yl)-3,4-dihydroxytetrahydrofuran-2-yl)methyl)sulfonyl)methyl)phosphonic acid]
≤ 500 nM | O=P(O)(O)CS(=O)(=O)C[C@H]1O[C@@H](n2ncc3c(NC4Cc5ccccc5C4)nc(Cl)nc32)[C@H](O)[C@@H]1O [Example 126, (((((2S,3S,4R,5R)-5-(6-chloro-4-((2,3-dihydro-1H-inden-2-yl)amino)-1H-pyrazolo[3,4-d]pyrimidin-1-yl)-3,4-dihydroxytetrahydrofuran-2-yl)methyl)sulfonyl)methyl)phosphonic acid]
≤ 500 nM | CC(=O)N(c1nc(Cl)nc2c1cnn2[C@@H]1O[C@H](COCP(=O)(O)O)[C@@H](O)[C@H]1O)C1CCCC1 [Example 99, ((((2R,3S,4R,5R)-5-(6-Chloro-4-(N-cyclopentylacetamido)-1H-pyrazolo[3,4-d]pyrimidin-1-yl)-3,4-dihydroxytetrahydrofuran-2-yl)methoxy)methyl)phosphonic acid]
≤ 500 nM | O=P(O)(O)CS(=O)(=O)C[C@H]1O[C@@H](n2nnc3c(NCc4ccc(Cl)cc4)nc(Cl)nc32)[C@H](O)[C@@H]1O [Example 120, (((((2S,3S,4R,5R)-5-(5-chloro-7-((4-chlorobenzyl)amino)-3H[1,2,3]triazolo[4,5-d]pyrimidin-3-yl)-3,4-dihydroxytetrahydrofuran-2-yl)methyl)sulfonyl)methyl)phosphonic acid]
≤ 500 nM | C[C@H](Nc1nc(Cl)nc2c1cnn2[C@@H]1O[C@H](COCP(=O)(O)O)[C@@H](O)[C@H]1O)C1CC1 [Example 91, ((((2R,3S,4R,5R)-5-(6-chloro-4-(((S)-1-cyclopropylethyl)amino)-1H-pyrazolo[3,4-d]pyrimidin-1-yl)-3,4-dihydroxytetrahydrofuran-2-yl)methoxy)methyl)phosphonic acid]
≤ 500 nM | O=P(O)(O)COC[C@H]1O[C@@H](n2ncc3c(N4CCCC4)nc(Cl)nc32)[C@H](O)[C@@H]1O [Example 81, ((((2R,3S,4R,5R)-5-(6-chloro-4-(pyrrolidin-1-yl)-1H-pyrazolo[3,4-d]pyrimidin-1-yl)-3,4-dihydroxytetrahydrofuran-2-yl)methoxy)methyl)phosphonic acid]
≤ 500 nM | O=P(O)(O)COC[C@H]1O[C@@H](n2ncc3c(NCc4cccc(C(F)(F)F)c4)nc(Cl)nc32)[C@H](O)[C@@H]1O [Example 32, ((((2R,3S,4R,5R)-5-(6-chloro-4-((3-(trifluoromethyl)benzyl)amino)-1H-pyrazolo[3,4-d]pyrimidin-1-yl)-3,4-dihydroxytetrahydrofuran-2-yl)methoxy)methyl)phosphonic acid]
≤ 500 nM | Cc1ccc(-c2nc(Cl)nc3c2cnn3[C@@H]2O[C@H](COCP(=O)(O)O)[C@@H](O)[C@H]2O)o1 [Example 100, ((((2R,3S,4R,5R)-5-(6-chloro-4-(5-methylfuran-2-yl)-1H-pyrazolo[3,4-d]pyrimidin-1-yl)-3,4-dihydroxytetrahydrofuran-2-yl)methoxy)methyl)phosphonic acid]
≤ 500 nM | O=P(O)(O)COC[C@H]1O[C@@H](n2nnc3c(NCc4ccccc4Cl)nc(Cl)nc32)[C@H](O)[C@@H]1O [Example 30, ((((2R,3S,4R,5R)-5-(5-chloro-7-((2-chlorobenzyl)pamino)-3H-[1,2,3]triazolo[4,5-d]pyrimidin-3-yl)-3,4-dihydroxytetrahydrofuran-2-yl)methoxy)methyl)phosphonic acid]
≤ 500 nM | CC1CCCC1Nc1nc(Cl)nc2c1cnn2[C@@H]1O[C@H](CS(=O)(=O)CP(=O)(O)O)[C@@H](O)[C@H]1O (stereo partly drawn) [Example 128, (((((2S,3S,4R,5R)-5-(6-chloro-4-((2-methylcyclopentyl)amino)-1H-pyrazolo[3,4-d]pyrimidin-1-yl)-3,4-dihydroxytetrahydrofuran-2-yl)methyl)sulfonyl)methyl)phosphonic acid]
≤ 500 nM | O=P(O)(O)COC[C@H]1O[C@@H](n2ncc3c(NC4CCCCC4)nc(Cl)nc32)[C@H](O)[C@@H]1O [Example 93, ((((2R,3S,4R,5R)-5-(6-chloro-4-(cyclohexylamino)-1H-pyrazolo[3,4-d]pyrimidin-1-yl)-3,4-dihydroxytetrahydrofuran-2-yl)methoxy)methyl)phosphonic acid]
